Here are results for two compounds from patent US20110152093A1, “Herbicidal compositions comprising flufenacet” (Bayer CropScience AG, priority 2009, published 2011).

Holding throughout (type): in vivo
The subject of assay [1] is LOLPE (Lolium perenne). The experiment in a line: Pre-sowing application action against weeds (7 days prior to sowing), test method 5. To be noted: application 7 days prior to sowing; g of AS/ha: (A) 90, (B) 1200, (C) 140, (A)+(B)+(C) 90 + 1200 + 140. As to the method:
(§1) In the standard design of the test, seeds of various broad-leaved weed and weed grass biotypes (origins) were sown in a 8-13 cm diameter pot filled with natural soil of a standard field soil (loamy silt; non-sterile) and covered with a covering soil layer of about 1 cm. The pots were then cultivated in a greenhouse (12-16 h of light, temperature day 20-22° C., night 15-18° C.) until the time of application. The pots were treated on a laboratory track sprayer with spray liquors comprising the compositions according to the invention, mixtures of the prior art or components used individually. Application of the active compounds or active compound combinations formulated as WG, WP, EC or otherwise was carried out at the appropriate growth stages of the plants. The application rate for the spray application was 100-600 l of water/ha. After the treatment, the plants were returned to the greenhouses.
(§2) About 3 weeks after the application, the soil action or/and foliar action was assessed visually according to a scale of 0-100% in comparison to an untreated comparative group: 0%=no noticeable effect compared to the untreated comparative group; 100%=full effect compared to the untreated comparative group.
(notes: the term “seeds” also includes vegetative propagation forms such as, for example, rhizome pieces; abbreviations used: h light=hours of illumination, g of AS/ha=gram of active substance per hectare, l/ha=liter per hectare, S=sensitive, R=resistant) • 1. Pre-emergence action against weeds: seeds of various broad-leaved weed and weed grass biotypes (origins) were sown in a 8-13 cm diameter pot filled with natural soil of a standard field soil (loamy silt; non-sterile) and covered with a covering soil layer of about 1 cm. The pots were then cultivated in a greenhouse (12-16 h of light, temperature day 20-22° C., night 15-18° C.) until the time of application. The pots were treated at the BBCH stage 00-10 of the seeds/plants on a laboratory track sprayer with spray liquors comprising the compositions according to the invention, mixtures or components used individually, as WG, WP, EC or other formulations. The application rate for the spray application was 100-600 l of water/ha. After the treatment, the plants were returned to the greenhouses and, when required, treated with fertilizer and watered. • 2. Post-emergence action against weeds: seeds of various broad-leaved weed and weed grass biotypes (origins) were sown in a 8-13 cm diameter pot filled with natural soil of a standard field soil (loamy silt; non-sterile) and covered with a covering soil layer of about 1 cm. The pots were then cultivated in a greenhouse (12-16 h of light, temperature day 20-22° C., night 15-18° C.) until the time of application. […]

The test system of assay [2] is ALOMY resistant (Alopecurus myosuroides). The experiment in a line: PE action on resistant weed biotypes, test method 8. The following applies: PE application; g of AS/ha: (A) 90, (B) 1200, (C) 140, (A)+(B)+(C) 90 + 1200 + 140, iodosulfuron 10. The procedure: as §1, §2
(§3) (notes: the term “seeds” also includes vegetative propagation forms such as, for example, rhizome pieces; abbreviations used: h light=hours of illumination, g of AS/ha=gram of active substance per hectare, l/ha=liter per hectare, S=sensitive, R=resistant) • 1. Pre-emergence action against weeds: seeds of various broad-leaved weed and weed grass biotypes (origins) were sown in a 8-13 cm diameter pot filled with natural soil of a standard field soil (loamy silt; non-sterile) and covered with a covering soil layer of about 1 cm. The pots were then cultivated in a greenhouse (12-16 h of light, temperature day 20-22° C., night 15-18° C.) until the time of application. The pots were treated at the BBCH stage 00-10 of the seeds/plants on a laboratory track sprayer with spray liquors comprising the compositions according to the invention, mixtures or components used individually, as WG, WP, EC or other formulations. The application rate for the spray application was 100-600 l of water/ha. After the treatment, the plants were returned to the greenhouses and, when required, treated with fertilizer and watered. • 2. Post-emergence action against weeds: seeds of various broad-leaved weed and weed grass biotypes (origins) were sown in a 8-13 cm diameter pot filled with natural soil of a standard field soil (loamy silt; non-sterile) and covered with a covering soil layer of about 1 cm. The pots were then cultivated in a greenhouse (12-16 h of light, temperature day 20-22° C., night 15-18° C.) until the time of application. The pots were treated at various BBCH stages between 11-25 of the seeds/plants, i.e. generally between two to three weeks after the start of the cultivation, on a laboratory track sprayer with spray liquors comprising the compositions according to the invention, mixtures or components used individually, as WG, WP, EC or other formulations. The application rate for the spray application was 100-600 l of water/ha. After the treatment, the plants were returned to the greenhouses and, when required, treated with fertilizer and watered. • 3. Selective pre-emergence action: seeds of various crop species (origins) were sown in a 8-13 cm diameter pot filled with natural soil of a standard field soil (loamy silt; non-sterile) and covered with a covering soil layer of about 1 cm. The pots were then cultivated in a greenhouse (12-16 h of light, temperature day 20-22° C., night 15-18° C.) until the time of application. The pots were treated at the BBCH stage 00-10 of the seeds/plants on a laboratory track sprayer with spray liquors comprising the compositions according to the invention, mixtures or components used individually, as WG, WP, EC or other formulations. The application rate for the spray application was 100-600 l of water/ha. […]

The subject of assay [3] is ALOMY sensitive (Alopecurus myosuroides). The assay is described as above. The following applies: PE application; g of AS/ha: (A) 90, (B) 1200, (C) 140, (A)+(B)+(C) 90 + 1200 + 140, iodosulfuron 10. The procedure: as §1, §2, §3
In assay [4] the test system is MATCH (Matricaria chamomilla). The experiment in a line: PE action under various irrigation conditions, test method 6. The following applies: PE application; irrigation from below; g of AS/ha: (A) 90, (B) 1200, (C) 140, (A)+(B)+(C) 90 + 1200 + 140. As to the method:
as §1, §2, §3

Assay [5] concerns LOLPE (Lolium perenne). Described as above. To be noted: PE application, g of AS/ha: (A) 90, (B) 1200, (C) 140, (A)+(B)+(C) 90 + 1200 + 140. As to the method:
as §1, §2, §3

The subject of assay [6] is STEME (Stellaria media). Briefly: Action under various soil conditions (soil types), test method 7. The following applies: IU/EC73 soil versus IU soil; g of AS/ha: (A) 90, (B) 1200, (C) 140, (A)+(B)+(C) 90 + 1200 + 140. As to the method: as §1, §2, §3
Assay [7] has as its system MATCH (Matricaria chamomilla). Described as above. The following applies: g of AS/ha: (A) 90, (B) 1200, (C) 140, (A)+(B)+(C) 90 + 1200 + 140. As to the method:
as §1, §2, §3

For assay [8], the system named is HORVS (Hordeum vulgare, summer barley). Briefly: Action under various soil conditions (soil types), test method 7, crop compatibility. To be noted: g of AS/ha: (A) 90, (B) 1200, (C) 140, (A)+(B)+(C) 90 + 1200 + 140. As to the method:
as §1, §2
(§4) (notes: the term “seeds” also includes vegetative propagation forms such as, for example, rhizome pieces; abbreviations used: h light=hours of illumination, g of AS/ha=gram of active substance per hectare, l/ha=liter per hectare, S=sensitive, R=resistant) • 1. Pre-emergence action against weeds: seeds of various broad-leaved weed and weed grass biotypes (origins) were sown in a 8-13 cm diameter pot filled with natural soil of a standard field soil (loamy silt; non-sterile) and covered with a covering soil layer of about 1 cm. The pots were then cultivated in a greenhouse (12-16 h of light, temperature day 20-22° C., night 15-18° C.) until the time of application. The pots were treated at the BBCH stage 00-10 of the seeds/plants on a laboratory track sprayer with spray liquors comprising the compositions according to the invention, mixtures or components used individually, as WG, WP, EC or other formulations. The application rate for the spray application was 100-600 l of water/ha. After the treatment, the plants were returned to the greenhouses and, when required, treated with fertilizer and watered. • 2. Post-emergence action against weeds: seeds of various broad-leaved weed and weed grass biotypes (origins) were sown in a 8-13 cm diameter pot filled with natural soil of a standard field soil (loamy silt; non-sterile) and covered with a covering soil layer of about 1 cm. The pots were then cultivated in a greenhouse (12-16 h of light, temperature day 20-22° C., night 15-18° C.) until the time of application. The pots were treated at various BBCH stages between 11-25 of the seeds/plants, i.e. generally between two to three weeks after the start of the cultivation, on a laboratory track sprayer with spray liquors comprising the compositions according to the invention, mixtures or components used individually, as WG, WP, EC or other formulations. The application rate for the spray application was 100-600 l of water/ha. After the treatment, the plants were returned to the greenhouses and, when required, treated with fertilizer and watered. • 3. […]

Assay [9] concerns POAAN (Poa annua). Briefly: Post-emergence (PO) action against weeds, greenhouse trial, test method 2. To be noted: PO application; g of AS/ha: (A) 240, (B) 1200, (C) 140, (A)+(B)+(C) 240 + 1200 + 140. The procedure: as §1, §2, §4
Assay [10] concerns VIOAR (Viola arvensis). The assay is described as above. The following applies: PO application; g of AS/ha: (A) 240, (B) 1200, (C) 140, (A)+(B)+(C) 240 + 1200 + 140. As to the method: as §1, §2, §4
For assay [11], the system named is AVEFA (Avena fatua). Briefly: PE action at different soil pH values, test method 10. To be noted: PE application, g of AS/ha: (A) 90, (B) 1200, (C) 140, (A)+(B)+(C) 90 + 1200 + 140. As to the method: as §1, §2
The test system of assay [12] is HORVS (Hordeum vulgare, summer barley). Briefly: Selective post-emergence action (crop compatibility), greenhouse trial, test method 4. The following applies: PO application; g of AS/ha: (A) 240, (B) 1200, (C) 140, (A)+(B)+(C) 240 + 1200 + 140. The procedure: as §1, §2
(notes: the term “seeds” also includes vegetative propagation forms such as, for example, rhizome pieces; abbreviations used: h light=hours of illumination, g of AS/ha=gram of active substance per hectare, l/ha=liter per hectare, S=sensitive, R=resistant) • 1. Pre-emergence action against weeds: seeds of various broad-leaved weed and weed grass biotypes (origins) were sown in a 8-13 cm diameter pot filled with natural soil of a standard field soil (loamy silt; non-sterile) and covered with a covering soil layer of about 1 cm. The pots were then cultivated in a greenhouse (12-16 h of light, temperature day 20-22° C., night 15-18° C.) until the time of application. […]

Consider `CSc1nnc(C(C)(C)C)c(=O)n1N` [(C) metribuzin, 4-amino-6-(1,1-dimethylethyl)-3-(methylthio)-1,2,4-triazin-5(4H)-one], for which the “activity LOLPE” value in assay [1] turned out to be 100%; in assay [5] (irrigation from above) it was 55%; in [5] (irrigation from below), 48%. Further, the “activity ALOMY resistant” value in [2] came to 80%. Also, the “activity ALOMY sensitive” value in [3] was 85%. Further, the “activity MATCH” value in assay [4] was 60%. The “Difference of the soil types, STEME” value in assay [6] is recorded as −70%. Moreover, in assay [7] (IU soil), the “activity MATCH IU soil” value was determined as 0%. For the same compound, in assay [7] (IU/EC73 soil versus IU soil), the “Difference of the soil types, MATCH” value is “+15%”. The “activity MATCH IU/EC73 soil” value in [7] (IU/EC73 soil) is 15%. For the same compound, the “activity HORVS IU soil (crop plant)” value in assay [8] (IU soil) turned out to be 20%. Besides, the “Difference of the soil types, HORVS” value in [8] (IU/EC73 soil versus IU soil) is −20%. For the same compound, the “activity POAAN (visual, scale 0-100%)” value in assay [9] is given as 79%. Further, the “activity VIOAR (visual, scale 0-100%)” value in assay [10] worked out at 90%. Besides, the “activity AVEFA pH 7.4” value in assay [11] (soil pH 7.4) stood at 90%. In assay [11] (soil pH 8.4), the “activity AVEFA pH 8.4” value amounted to 90%. The “activity HORVS (crop plant; visual, scale 0-100%)” value in [12] is listed as 70%.
Regarding `COc1nc(C)nc(NC(=O)NS(=O)(=O)c2cc(I)ccc2C(=O)O)n1` [(C)^1 iodosulfuron, iodosulfuron], the “activity ALOMY resistant” value in [2] is 40%. The “activity ALOMY sensitive” value in assay [3] is given as 90%.
